Consider 1 compound from PubChem BioAssay (NCI).

Among the test systems are ACHN renal; CAKI-1 renal; LXFL 529 NSCLC; M19-MEL melanoma; OVCAR-3 ovarian; SR leukemia; TK-10 renal; U251 CNS; UACC-62 melanoma.
Common to all, as to test: NCI anticancer screen, dose series, 48 h

Molecules are shown by their SMILES.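 Results reflect a 48-hour exposure of cells in 96-well plates to compound at five concentrations. GI50 = concentration required for 50% inhibition of growth. TGI: concentration producing complete growth inhibition.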

Regarding `CC(=O)OC(C(=O)[O][Sn]([CH3])([CH3])[CH3])c1ccccc1` (stereo not drawn), the GI50 with ACHN renal is over 100 µM; with CAKI-1 renal it was over 100 µM; in the assay with LXFL 529 NSCLC, 99.5 µM; with M19-MEL melanoma, over 100 µM; in the assay with OVCAR-3 ovarian, over 100 µM; in the assay with SR leukemia, over 100 µM. For the same compound, the GI50 in the assay with TK-10 renal, in the assay on U251 CNS and with UACC-62 melanoma was over 100 µM throughout. For the same compound, the TGI in the assay on ACHN renal, in the assay with CAKI-1 renal, in the assay on LXFL 529 NSCLC, with M19-MEL melanoma, with OVCAR-3 ovarian and in the assay on SR leukemia was over 100 µM in each case. In addition, the TGI with TK-10 renal, in the assay on U251 CNS and in the assay on UACC-62 melanoma was over 100 µM each time.
